From the supplement of paper PMC10307832

Columns and labels:
Test in all cases: relative viability (nuclei count vs DMSO), 5 days (fraction); higher = more cells survive
[1] = compound: NS(=O)(=O)OC[C@@H]1C[C@@H](n2ccc3c(N[C@H]4CCc5ccccc54)ncnc32)C[C@@H]1O [MLN4924] + CC(C)C[C@H](NC(=O)[C@H](Cc1ccccc1)NC(=O)c1cnccn1)B(O)O [Bortezomib] (partner 0.002 µM)
Method in brief: (§1)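 Lung cancer cell lines in 1536-well plates were dosed by pin tool the day after seeding, either with one drug alone or with a fixed anchor-drug dose plus five library-drug doses (not always all listed) in √10 steps. After 5 days, cells were fixed and their nuclei stained in one step (final 0.05% Triton X-100, 1% formaldehyde, 1 ug/ml Hoechst), then counted on 4× images. Relative viability is the nuclei count in treated wells divided by that in vehicle wells. Values are medians of duplicate plates.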

[2] = compound: C1CC(C1)(C(=O)O)C(=O)O.[NH2-].[NH2-].[Pt+2] [Carboplatin] + CS(=O)(=O)N1CCN(Cc2cc3nc(-c4cccc5[nH]ncc45)nc(N4CCOCC4)c3s2)CC1 [Pictilisib] (partner 1 µM)
Method in brief: as §1

[3] = compound: C1CC(C1)(C(=O)O)C(=O)O.[NH2-].[NH2-].[Pt+2] [Carboplatin] + C[C@]1(O)C[C@@H](c2nc(-c3ccc4ccc(-c5ccccc5)nc4c3)c3c(N)nccn32)C1 [Linsitinib] (partner 1 µM)
Method in brief: as §1

[4] = compound: CC[C@H](C)N1C=C(C2=C(C=C(C=C21)C3=CN=C(C=C3)N4CCNCC4)C(=O)NCC5=C(C=C(NC5=O)C)C)C [GSK126] + Cc1nc(NC(=O)N2CCC[C@H]2C(N)=O)sc1-c1ccnc(C(C)(C)C(F)(F)F)c1 [Alpelisib] (partner 2 µM)
Method in brief: as §1

Work on UMC-11 yielded a relative viability ([1]; first compound 0.04 µM) of 0.529, a relative viability ([1]; first compound 0.1265 µM) of 0.301 and a relative viability ([1]; first compound 0.4 µM) of 0.269. It also gave a relative viability ([1]; first compound 1.265 µM) of 0.1, a relative viability ([1]; first compound 4 µM) of 0.0977 and a relative viability ([2]; first compound 0.08 µM) of 0.779. It also gave a relative viability ([2]; first compound 0.253 µM) of 0.777, a relative viability ([2]; first compound 0.8 µM) of 0.76 and a relative viability ([2]; first compound 2.53 µM) of 0.78. The relative viability ([2]; first compound 8 µM) was 0.587, the relative viability ([3]; first compound 0.08 µM) was 1.02 and the relative viability ([3]; first compound 0.253 µM) was 1.01. It also gave a relative viability ([3]; first compound 0.8 µM) of 0.928, a relative viability ([3]; first compound 2.53 µM) of 0.98 and a relative viability ([3]; first compound 8 µM) of 0.837. The relative viability ([4]; first compound 0.08 µM) was 1.03, the relative viability ([4]; first compound 0.253 µM) was 1.1 and the relative viability ([4]; first compound 0.8 µM) was 0.983. It also gave a relative viability ([4]; first compound 2.53 µM) of 0.961 and a relative viability ([4]; first compound 8 µM) of 1.17.
